Measured values: ChEMBL document CHEMBL1201862, “PubChem BioAssay data set” (2004)
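Method: 48-hour compound exposure of cells in 96-well plates, five concentrations, linear interpolation of endpoints. The concentration for 50% growth inhibition is given as GI50.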 Activity calls are given as the source filed them. Rule as the data show it: active = GI50 up to about 1.1 µM and inactive = higher.

Columns and labels:
Assay in all cases: NCI anticancer screen, dose series, 48 h
DMS-114 = tested on: DMS-114
KM-20L2 = tested on: KM-20L2
LXFL 529 = tested on: LXFL 529
RXF 631 = tested on: RXF 631
DU-145 = tested on: DU-145
MDA-MB-231 = tested on: MDA-MB-231
PC-3 = tested on: PC-3
SR = tested on: SR
T47D = tested on: T47D

| Structure (SMILES) | GI50 (DMS-114) | GI50 (KM-20L2) | GI50 (LXFL 529) | GI50 (RXF 631) | GI50 (DU-145) | GI50 (MDA-MB-231) | GI50 (PC-3) | GI50 (SR) | GI50 (T47D) |
| --- | --- | --- | --- | --- | --- | --- | --- | --- | --- |
| CC1=NC(C(=O)O)Cc2c1[nH]c1ccccc21 (centres undefined) | > 100 µM (inactive) | > 100 µM (inactive) | > 100 µM (inactive) | > 100 µM (inactive) |  |  |  |  |  |
| Fc1c(F)c(F)c(CSc2nc3ccccc3[nH]2)c(F)c1F |  |  |  |  | > 100 µM (inactive) | > 100 µM (inactive) | > 100 µM (inactive) | 59 µM (inactive) | > 100 µM (inactive) |
| CCOC(=O)CNC(=O)C(CCC(=O)N(C)O)NC(=O)CCC(N)C(=O)O (centres undefined) |  |  |  |  | > 100 µM (inactive) | > 100 µM (inactive) | > 100 µM (inactive) |  | > 100 µM (inactive) |
| O=C1NC2(CCCCC2)C2CCCCCC12 (centres undefined) | > 100 µM (inactive) | > 100 µM (inactive) | > 100 µM (inactive) | > 100 µM (inactive) |  |  |  | > 100 µM (inactive) |  |
| CCOC(=O)c1csc(NC(=O)CCCC#N)n1 |  |  |  |  | > 100 µM (inactive) | > 100 µM (inactive) | > 100 µM (inactive) | > 100 µM (inactive) | > 100 µM (inactive) |
| O=C1CN(c2ccccc2)C(=O)C1C(=O)Nc1ccc(Cl)c(Cl)c1 (centres undefined) | 2.76 µM (inactive) | 4.41 µM (inactive) | 1.65 µM (inactive) | 3.59 µM (inactive) |  |  |  | 0.581 µM (active) |  |
| CO/C(=N/N1CC1C(F)(F)F)c1ccncc1 (centres undefined) |  |  |  |  | > 100 µM (inactive) | > 100 µM (inactive) | > 10 µM (inactive) | > 100 µM (inactive) | > 100 µM (inactive) |
| Cc1ccc([N+](=O)[O-])cc1S(=O)(=O)Nc1ccc(C2=NNC(c3cccs3)C2)cc1 (centres undefined) |  |  |  |  | 30.3 µM (inactive) |  | 33.3 µM (inactive) | 20 µM (inactive) | 4.85 µM (inactive) |
| Cn1c2c(c3ccccc31)CCN(CCCCN1CCCCC1)C2=O |  | > 100 µM (inactive) | > 100 µM (inactive) | > 100 µM (inactive) |  |  |  |  |  |
| CC1(C)C2CCC3(OCCO3)C1C(O)C2 (centres undefined) |  | > 100 µM (inactive) | > 100 µM (inactive) | > 100 µM (inactive) |  |  |  |  |  |
| Cc1ccc([N+](=O)[O-])cc1/N=N/C(=O)NNc1cc([N+](=O)[O-])ccc1C |  |  |  |  | 35.3 µM (inactive) | 15.5 µM (inactive) | 17.6 µM (inactive) | 52.8 µM (inactive) | 31.3 µM (inactive) |
| COc1cc2c(cc1OC)C(Cl)C(c1cc(OC)c(OC)c(OC)c1)=C2Cl (centres undefined) | 10.8 µM (inactive) | 17.9 µM (inactive) | 11.5 µM (inactive) | 18.8 µM (inactive) |  |  |  |  |  |
| CN(C)CCSc1nccc(-c2ccc(-c3ccnc(SCCN(C)C)n3)s2)n1 | 11.9 µM (inactive) | 7.36 µM (inactive) |  |  |  |  |  |  |  |
| C1CCC2(CC1)O[C@@H]1[C@@H](O2)[C@@H](O[C@H]2O[C@@H]3COC4(CCCCC4)O[C@H]3[C@@H]3OC4(CCCCC4)O[C@@H]23)O[C@@H]2COC3(CCCCC3)O[C@@H]12 |  |  |  |  | > 100 µM (inactive) | > 100 µM (inactive) | > 100 µM (inactive) |  | > 100 µM (inactive) |
| c1ccc(/N=C2/SC3=Nc4cccc5cccc(c45)N3/C2=N/c2ccccc2)cc1 |  |  |  |  | > 100 µM (inactive) | > 100 µM (inactive) | > 100 µM (inactive) | > 100 µM (inactive) | > 100 µM (inactive) |
| CSC1NC(c2ccccc2)=C(C#N)C(=O)N1C1OCC(OC(C)=O)C(OC(C)=O)C1OC(C)=O (centres undefined) |  |  |  |  | > 100 µM (inactive) | > 100 µM (inactive) | > 100 µM (inactive) | > 100 µM (inactive) |  |
| COc1ccc2c(C)cc(N/N=C/c3sccc3C)nc2c1 |  |  |  |  | 6.68 µM (inactive) | 1.43 µM (inactive) | 12.9 µM (inactive) | 22.9 µM (inactive) | 7.76 µM (inactive) |
| CCOC(=O)NC(=O)c1cn(CCSCCOC(=O)NCCCCCCNC(=O)OCCSCCn2cc(C(=O)NC(=O)OCC)c(=O)[nH]c2=O)c(=O)[nH]c1=O | > 100 µM (inactive) | > 100 µM (inactive) |  |  |  |  |  |  |  |
| CCOC1=C2N=C(Cc3ccc(F)cc3)NC2C(=O)c2ccccc21 (centres undefined) | 18.5 µM (inactive) | 40.3 µM (inactive) | 25.5 µM (inactive) | 15.1 µM (inactive) |  |  |  |  |  |
| COc1nc(N)nc2nc[nH]c12 | 467 µM (inactive) | > 500 µM (inactive) | > 800 µM (inactive) | 647 µM (inactive) | 478 µM (inactive) | 444 µM (inactive) | 466 µM (inactive) | 313 µM (inactive) | 418 µM (inactive) |
| NC1(C(=O)O)CCc2ccc(N(CCCl)CCCl)cc2C1 (centres undefined) | 45.9 µM (inactive) | > 100 µM (inactive) |  |  |  |  |  |  |  |
